Measurements published in patent publication EP4775577A1, “RAS INHIBITOR” (Tyligand Bioscience (Shanghai) Limited, priority 2023, dated 2025).
Read-outs that look alike come from different tables or passages of the source.

Legend:
[1] = tested on: KRAS G12V mutant NCI-H727 cells; experiment: Proliferation inhibition of NCI-H727 cells, 3D CellTiter-Glo assay (Method B); format: cell-based, human; conditions: Method B, 3D culture with 0.65% methylcellulose, 5 days, CTG, read-out: NCI-H727 IC50/nM
Method: NCI-H727 cells (Nanjing Kebai Biotechnology Co., Ltd., catalog number CBP60182, adherent, culture medium RPMI-1640+10%FBS (GIBCO, Cat#10091-148)) were cultured at 37°C, 5% CO2, and 95% humidity.
3D cell viability assay: Cells in the logarithmic growth phase were harvested and counted using a platelet counter. Cell viability was assessed using the trypan blue exclusion method to ensure a viability of over 90%. The 3D cell culture medium was prepared by adding 1% MC (methylcellulose, Sigma, Cat#M0512) to RPMI-1640 medium and 10% FBS. The cell concentration was adjusted to approximately 25,000 cells/mL using the 3D medium, and the methylcellulose (MC) content was set to 0.65%. Then, 80 µL of cell suspension was added to each 96-well clear, flat-bottomed, black-walled plate (Greiner, Cat# 655096). The cells in the 96-well plates were cultured overnight at 37°C and 5% CO2.
Drug preparation for IC50 assay: A 5-fold drug solution was prepared using culture medium. 20 µL of the drug solution was added to each well of a 96-well plate seeded with cells to achieve a working concentration of up to 10 µM, with a 3× dilution, and 9 concentrations. 2 replicate wells for each drug concentration were set. The cells in the drug-treated 96-well plates were cultured at 37°C and 5% CO2 for additional 5 days, then CTG assay (CellTiter-Glo® Luminescent Cell Viability Assay (Promega, Cat#G7573)) were performed.
The cell plate was equilibrated to room temperature for 30 minutes and the CTG reagent was thawed. 50 µL of CTG solution was added to each well for detection and the plate was shaken on an orbital shaker for 5 minutes to lyse the cells. The cell plate was then placed at room temperature for 25 minutes to stabilize the cryo-luminescence signal, and the cryo-luminescence value was read (EnVision® multi-plate reader, PerkinElmer#2105).
(§1) Data was analyzed using GraphPad Prism software. The dose-response-inhibition equation was used to fit the data to obtain the dose-response curve, and the IC50 value (nM) was calculated accordingly. [formula]

[2] = tested on: KRAS G12D mutant AGS cells; experiment: Proliferation inhibition of AGS cells, CellTiter-Glo assay; format: cell-based, human; conditions: 3 days, CTG, read-out: AGS IC50/nM
Method: AGS cells (Nanjing Kebai Biotechnology Co., Ltd., catalog number CBP60476, adherent, culture medium (F12K Nutrient Mixture+10% FBS (GIBCO, Cat#10091-148) were cultured at 37°C, 5% CO2, and 95% humidity at a density of 1500 cells/well. Cells in the logarithmic growth phase were harvested and counted using a Countstar automated cell counter based on the classic trypan blue staining method to ensure cell viability was above 90%. The cell concentration was adjusted, and 80 µL of cell suspension was added to each 96-well clear flat-bottomed, black-walled plate (Greiner, Cat# 655090). The cells in the 96-well plates were then cultured at 37°C and 5% CO2.
Drug preparation for IC50 assay: A 5-fold drug solution was prepared using culture medium. 20 µL of the drug solution was added to each well of a 96-well plate seeded with cells to achieve a working concentration of up to 10 µM, with a 3 × dilution, and a total of 9 concentrations. 2 replicate wells for each drug concentration were set. The cells in the drug-treated 96-well plates were cultured at 37°C and 5% CO2 for additional 3 days and then CTG assay were performed.
The cell plate was equilibrated to room temperature for 30 minutes and the CTG reagent (CellTiter-Glo® Luminescent Cell Viability Assay (Promega, Cat# G7573)) was thawed. 50 µL of CTG solution was added to each well and the plate was shaken on an orbital shaker for 2 minutes to lyse the cells. The cell plate was placed at room temperature for 10 minutes to stabilize the cryo-luminescence signal and the cryo-luminescence value was read (EnVision® Multifunctional microplate reader, PerkinElmer #2105).
as §1

Structure (SMILES) | IC50 ([1]; Homo sapiens, NCI-H727, 120 h) [nM] | IC50 ([2]; Homo sapiens, AGS, 72 h) [nM] | IC50 [1] [nM] | IC50 [2] [nM]
CN1CC/C(=C\F)[C@](C)(COc2nc(N3CCCn4nc(C(=O)N(C)C)cc4C3)c3cc(Cl)c(-c4c(F)ccc5sc(N)c(C#N)c45)c(F)c3n2)C1 (atropisomer, axis not shown; (Sa)) [Example 93B, (Sa)-5-(7-(2-amino-3-cyano-5-fluorobenzo[b]thiophene-4-yl)-6-chloro-8-fluoro-2-(((S,E)-4-(fluoromethylene)-1,3-dimethylpiperidine-3-yl)methoxy)quinazoline-4-yl)-N,N-dimethyl-5,6,7,8-tetrahydro-4H-pyrazolo[1,5-a][1,4]diazepine-2-formamide·formate] |  |  | 191 | 178
CN1CC/C(=C\F)[C@](C)(COc2nc(N3CCCn4nc(C(=O)N(C)C)cc4C3)c3cc(Cl)c(-c4cccc5sc(N)c(C#N)c45)c(F)c3n2)C1 (atropisomer, axis not shown; (Sa)) [Example 94A, (Sa)-5-(7-(2-amino-3-cyanobenzo[b]thiophene-4-yl)-6-chloro-8-fluoro-2-(((S,E)-4-(fluoromethylene)-1,3-dimethylpiperidine-3-yl)methoxy)quinazoline-4-yl)-N,N-dimethyl-5,6,7,8-tetrahydro-4H-pyrazolo[1,5-a][1,4]diazepine-2-formamide·formate] | 9 | 3.3 |  | 
CN1CC/C(=C\F)[C@](C)(COc2nc(N3CCCn4nc(C(=O)N(C)C)cc4C3)c3cc(/C=C\F)c(-c4cccc5sc(N)c(C#N)c45)c(F)c3n2)C1 (single isomer, unassigned) [Example 112B] | 11 | 5.3 |  | 
[2H]C([2H])([2H])N1CC/C(=C\F)[C@](C)(COc2nc(N3Cc4c(Cl)c(C(=O)N(C)C)nn4CC[C@@H]3C)c3cc(CC)c(-c4c(F)ccc5sc(N)c(C#N)c45)c(F)c3n2)C1 (single isomer, unassigned) [Example 182A] | < 1.5 | 2 |  | 
[2H]C([2H])([2H])N1CC/C(=C\F)[C@](C)(COc2nc(N3Cc4c(C)c(C(=O)N(C)C)nn4CC[C@@H]3C)c3cc(CC)c(-c4c(F)ccc5sc(N)c(C#N)c45)c(F)c3n2)C1 (single isomer, unassigned) [Example 183A] | < 1.5 | < 1.5 |  | 
[2H]C([2H])([2H])N1CC/C(=C\F)[C@](C)(COc2nc(N3Cc4c(C#C)c(C(=O)N(C)C)nn4CC[C@@H]3C)c3cc(CC)c(-c4c(F)ccc5sc(N)c(C#N)c45)c(F)c3n2)C1 (single isomer, unassigned) [Example 184A] | 4.3 | 3.4 |  | 
[2H]C([2H])([2H])N1CCC(=CF)C(C)(COc2nc(N3Cc4cc(C(=O)N(C([2H])([2H])[2H])C([2H])([2H])[2H])nn4CCC3C)c3cc(CC)c(-c4c(F)ccc5sc(N)c(C#N)c45)c(F)c3n2)C1 (single isomer, unassigned) [Example 185A] | < 1.5 | < 1.5 |  | 
CCN1CC/C(=C\F)[C@](C)(COc2nc(N3Cc4c(COC)c(C(=O)N(C)C)nn4CC[C@@H]3C)c3cc(Cl)c(-c4ncc(F)c5sc(N)c(C#N)c45)c(C)c3n2)C1 (single isomer, unassigned) [Example 238A] | 6.5 | 11.5 |  | 
CCN1CC/C(=C\F)[C@](C)(COc2nc(N3Cc4cc(C(=O)N(C)C)nn4CC[C@@H]3C)c3cc(Cl)c(-c4c(F)ccc5sc(N)c(C#N)c45)c(C(F)F)c3n2)C1 (single isomer, unassigned) [Example 242A] | 6.3 | 5.4 |  | 
CN1CC[C@H](C(F)F)[C@](C)(COc2nc(N3CCCn4nc(C(=O)N(C)C)cc4C3)c3cc(C(F)(F)F)c(-c4cccc5sc(N)c(C#N)c45)c(F)c3n2)C1 [Example 7, 5-(7-(2-Amino-3-cyanobenzo[b]thiophene-4-yl)-2-(((3S,4S)-4-(difluoromethyl)-1,3-dimethylpiperidine-3-yl)methoxy)-8-fluoro-6-(trifluoromethyl)quinazoline-4-yl)-N,N-dimethyl-5,6,7,8-tetrahydro-4H-pyrazolo[1,5-a][1,4]diazepine-2-formamide] | 13.1 | 6.7 |  | 
CN1CC/C(=C\F)[C@](C)(COc2nc(N3CCCn4nc(C(=O)N(C)C)cc4C3)c3cc(C(F)(F)F)c(-c4cccc5sc(N)c(C#N)c45)c(F)c3n2)C1 [Example 8, 5-(7-(2-Amino-3-cyanobenzo[b]thiophene-4-yl)-8-fluoro-2-(((S,E)-4-(fluoromethylene)-1,3-dimethylpiperidine-3-yl)methoxy)-6-(trifluoromethyl)quinazoline-4-yl)-N,N-dimethyl-5,6,7,8-tetrahydro-4H-pyrazolo[1,5-a][1,4]diazepine-2-formamide] | 21.3 | 8.1 |  | 

Second part, led by results:

IC50 ([1]; Homo sapiens, NCI-H727, 120 h) [nM] | IC50 ([2]; Homo sapiens, AGS, 72 h) [nM] | Structure (SMILES) | IC50 [1] [nM] | IC50 [2] [nM]
6.9 | < 1.5 | CN1CC/C(=C\F)[C@](C)(COc2nc(N3CCCn4nc(C(=O)N(C)C)c(C#N)c4C3)c3cc(C(F)(F)F)c(-c4cccc5sc(N)c(C#N)c45)c(F)c3n2)C1 (single isomer, unassigned) [Example 119B] |  | 
4.3 |  | CN1CC/C(=C\F)[C@](C)(COc2nc(N3CCCn4nc(C(=O)N(C)C)c(Cl)c4C3)c3cc(C4CC4)c(-c4c(F)ccc5sc(N)c(C#N)c45)c(F)c3n2)C1 (single isomer, unassigned) [Example 161A] |  | 2.4
419 | 199 | CCc1cc2c(N3Cc4cc(C(=O)N(C)C)nn4CC[C@@H]3C)nc(OC[C@]3(C)CN(C)CC/C3=C\F)nc2c(F)c1-c1c(C)ccc2[nH]ncc12 (single isomer, unassigned) [Example 172A] |  | 
43.1 | 49.6 | Cc1cc(N)nc(-c2c(Cl)cc3c(N4Cc5cc(C(=O)N(C)C)nn5CCC4C)nc(OCC4(C)CN(C)CCC4=CF)nc3c2F)c1C(F)(F)F (single isomer, unassigned) [Example 213A] |  | 
39.8 | 19.7 | COCc1cc2c(N3Cc4cc(C(=O)N(C)C)nn4CC[C@@H]3C)nc(OC[C@]3(C)CN(C)CC/C3=C\F)nc2c(F)c1-c1c(F)ccc2sc(N)c(C#N)c12 (single isomer, unassigned) [Example 226A] |  | 
2.2 | 1.7 | CCN1CC/C(=C\F)[C@](C)(COc2nc(N3Cc4c(COC)c(C(=O)N(C)C)nn4CC[C@@H]3C)c3cc(C(F)(F)F)c(-c4ncc(F)c5sc(N)c(C#N)c45)c(F)c3n2)C1 (single isomer, unassigned) [Example 230A] |  | 
4.4 | 2.5 | CCN1CC/C(=C\F)[C@](C)(COc2nc(N3Cc4cc(C(=O)N(C)C)nn4CC[C@@H]3C)c3cc(Cl)c(-c4ncc(F)c5sc(N)c(C#N)c45)c(F)c3n2)C1 (single isomer, unassigned) [Example 231A] |  | 
< 1.5 | < 1.5 | CCN1CC/C(=C\F)[C@](C)(COc2nc(N3Cc4c(OC)c(C(=O)N(C)C)nn4CC[C@@H]3C)c3cc(Cl)c(-c4c(F)ccc5sc(N)c(C#N)c45)c(F)c3n2)C1 (single isomer, unassigned) [Example 234A] |  | 
< 1.5 | < 1.5 | CCN1CC/C(=C\F)[C@](C)(COc2nc(N3Cc4cc(C(=O)N(C)C)nn4CC[C@@H]3C)c3cc(C(F)(F)F)c(-c4c(F)ccc5sc(N)c(C#N)c45)c(F)c3n2)C1 (single isomer, unassigned) [Example 248A] |  | 
2.1 | 41.5 | CN1CC/C(=C\F)[C@](C)(COc2nc(N3CC[C@@H](C#N)[C@H](O)C3)c3cc(C(F)(F)F)c(-c4c(F)ccc5sc(N)c(C#N)c45)c(F)c3n2)C1 (single isomer, unassigned) [Example 252] |  | 
